According to article PMC9709915, “A Single Point Mutation Blocks the Entrance of Ligands to the Cannabinoid CB2 Receptor via the Lipid Bilayer” (Journal of Chemical Information and Modeling, 2022):

Columns and labels:
Assay in all cases: inhibition of forskolin-stimulated cAMP, Lance-Ultra cAMP kit, HTRF
Assay type in all cases: cell-based
[1] = molecular target: T1, CB2R (hCB2R) (Homo sapiens, UniProt P34972, V36F)
T1 construct: gene CNR2; full-length hCB2R cDNA in pcDNA3.1, transiently expressed in HEK-293T cells; no tag mentioned
Text: (§1) inhibition of forskolin-stimulated cAMP, Lance-Ultra cAMP kit, HTRF on CB2R (hCB2R)

[2] = molecular target: T2, CB2R (hCB2R) (Homo sapiens, UniProt P34972, A282F)
T2 construct: gene CNR2; full-length hCB2R cDNA in pcDNA3.1, transiently expressed in HEK-293T cells; no tag mentioned
Text: as §1

[3] = molecular target: T3, CB2R (hCB2R) (Homo sapiens, UniProt P34972, V36M)
T3 construct: gene CNR2; full-length hCB2R cDNA in pcDNA3.1, transiently expressed in HEK-293T cells; no tag mentioned
Text: as §1

[4] = molecular target: T4, CB2R (hCB2R) (Homo sapiens, UniProt P34972)
T4 construct: gene CNR2; full-length hCB2R cDNA in pcDNA3.1, transiently expressed in HEK-293T cells; no tag mentioned
Text: as §1

[5] = molecular target: T5, CB2R (hCB2R) (Homo sapiens, UniProt P34972, A282M)
T5 construct: gene CNR2; full-length hCB2R cDNA in pcDNA3.1, transiently expressed in HEK-293T cells; no tag mentioned
Text: as §1

T2 sequence (P34972 whole entry A282F): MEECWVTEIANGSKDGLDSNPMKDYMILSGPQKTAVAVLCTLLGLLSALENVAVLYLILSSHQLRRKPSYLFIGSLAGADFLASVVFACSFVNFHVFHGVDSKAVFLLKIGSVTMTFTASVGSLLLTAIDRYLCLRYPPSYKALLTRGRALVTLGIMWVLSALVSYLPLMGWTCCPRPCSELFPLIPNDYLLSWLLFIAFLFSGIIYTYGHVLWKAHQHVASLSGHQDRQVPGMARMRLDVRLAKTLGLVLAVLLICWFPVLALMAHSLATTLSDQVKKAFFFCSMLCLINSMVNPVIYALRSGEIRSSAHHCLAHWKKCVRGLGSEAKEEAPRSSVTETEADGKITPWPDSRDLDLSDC
T1 sequence (P34972 whole entry V36F): as the sequence (P34972 whole entry A282F) above, with V36F, F282A counted along it
T5 sequence (P34972 whole entry A282M): as the sequence (P34972 whole entry A282F) above, with F282M counted along it
T3 sequence (P34972 whole entry V36M): as the sequence (P34972 whole entry A282F) above, with V36M, F282A counted along it
T4 sequence (P34972 whole entry): as the sequence (P34972 whole entry A282F) above, with F282A counted along it

Compound: CCCC(C)(C)c1ccc2c(c1)OC(C)(C)[C@@H]1CC=C(C)C[C@@H]21 [JWH-133]
- EC50 [1]: 158 nM
- EC50 [2]: 316 nM
- EC50 [3]: 12.6 nM
- EC50 [4]: 31.6 nM
- EC50 [5]: 15.8 nM
